Assays:
BRM = BRM (Homo sapiens, UniProt P51531); assay: ATPase catalytic activity assay of BRM (ADP-Glo); type: biochemical; conditions: for IC50: read-out: BRM IC50 (μM)*
Method in brief: (§1)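 Measurement is luminescence, reflecting ADP produced by ATPase turnover. The two-step ADP-Glo detection consists of ATP depletion for 40 min and ADP-to-ATP conversion with luciferase for 60 min, both at room temperature.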

BRG-1 = BRG-1 (Homo sapiens, UniProt P51532); assay: ATPase catalytic activity assay of BRG-1 (ADP-Glo); type: biochemical; conditions: ATPase catalytic activity, ADP-Glo; for IC50: read-out: BRG1 IC50 (μM)*; for Emax: read-out: BRG1 Max % Inhibition
Method in brief: as §1

Chain of BRM (P51531 whole entry): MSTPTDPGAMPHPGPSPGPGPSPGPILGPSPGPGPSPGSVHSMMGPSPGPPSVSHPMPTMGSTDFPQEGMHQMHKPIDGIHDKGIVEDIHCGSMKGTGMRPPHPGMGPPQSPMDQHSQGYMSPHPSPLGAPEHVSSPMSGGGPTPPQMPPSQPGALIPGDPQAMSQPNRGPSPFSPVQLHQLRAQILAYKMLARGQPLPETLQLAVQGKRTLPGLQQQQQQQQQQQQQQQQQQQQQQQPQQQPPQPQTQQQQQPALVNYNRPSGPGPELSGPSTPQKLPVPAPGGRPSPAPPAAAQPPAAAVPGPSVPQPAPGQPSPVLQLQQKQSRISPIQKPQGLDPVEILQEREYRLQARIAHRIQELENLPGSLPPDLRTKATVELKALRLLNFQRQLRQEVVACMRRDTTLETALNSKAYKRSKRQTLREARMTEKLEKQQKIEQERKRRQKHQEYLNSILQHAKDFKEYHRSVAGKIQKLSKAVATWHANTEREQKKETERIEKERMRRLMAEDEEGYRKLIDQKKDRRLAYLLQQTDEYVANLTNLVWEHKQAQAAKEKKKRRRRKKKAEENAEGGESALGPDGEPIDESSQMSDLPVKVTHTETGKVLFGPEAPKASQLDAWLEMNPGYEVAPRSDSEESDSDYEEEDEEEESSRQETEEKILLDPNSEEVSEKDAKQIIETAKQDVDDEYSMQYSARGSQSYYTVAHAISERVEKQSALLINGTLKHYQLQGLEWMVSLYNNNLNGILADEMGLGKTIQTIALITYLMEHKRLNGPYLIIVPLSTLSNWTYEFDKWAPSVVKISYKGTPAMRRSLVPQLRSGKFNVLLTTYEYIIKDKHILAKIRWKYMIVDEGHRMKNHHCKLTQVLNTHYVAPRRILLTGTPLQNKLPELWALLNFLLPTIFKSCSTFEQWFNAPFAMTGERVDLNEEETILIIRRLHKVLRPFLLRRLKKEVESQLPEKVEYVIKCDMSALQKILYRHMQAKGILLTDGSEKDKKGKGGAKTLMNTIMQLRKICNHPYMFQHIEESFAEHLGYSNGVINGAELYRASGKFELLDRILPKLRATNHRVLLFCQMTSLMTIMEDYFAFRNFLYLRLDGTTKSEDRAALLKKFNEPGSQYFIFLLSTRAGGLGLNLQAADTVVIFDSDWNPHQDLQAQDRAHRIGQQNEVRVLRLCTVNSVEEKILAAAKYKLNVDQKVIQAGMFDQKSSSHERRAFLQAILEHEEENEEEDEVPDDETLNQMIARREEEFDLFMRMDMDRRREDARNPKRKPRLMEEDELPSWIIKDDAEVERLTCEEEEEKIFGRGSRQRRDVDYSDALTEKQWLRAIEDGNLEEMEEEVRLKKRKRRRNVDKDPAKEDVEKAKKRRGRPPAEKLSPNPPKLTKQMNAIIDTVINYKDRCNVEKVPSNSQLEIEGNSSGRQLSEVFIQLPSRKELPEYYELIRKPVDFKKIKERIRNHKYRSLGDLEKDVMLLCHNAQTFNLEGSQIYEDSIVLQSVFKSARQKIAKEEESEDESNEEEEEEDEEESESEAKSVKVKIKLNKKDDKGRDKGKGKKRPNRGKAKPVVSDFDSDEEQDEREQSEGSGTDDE
Chain of BRG-1 (P51532 whole entry): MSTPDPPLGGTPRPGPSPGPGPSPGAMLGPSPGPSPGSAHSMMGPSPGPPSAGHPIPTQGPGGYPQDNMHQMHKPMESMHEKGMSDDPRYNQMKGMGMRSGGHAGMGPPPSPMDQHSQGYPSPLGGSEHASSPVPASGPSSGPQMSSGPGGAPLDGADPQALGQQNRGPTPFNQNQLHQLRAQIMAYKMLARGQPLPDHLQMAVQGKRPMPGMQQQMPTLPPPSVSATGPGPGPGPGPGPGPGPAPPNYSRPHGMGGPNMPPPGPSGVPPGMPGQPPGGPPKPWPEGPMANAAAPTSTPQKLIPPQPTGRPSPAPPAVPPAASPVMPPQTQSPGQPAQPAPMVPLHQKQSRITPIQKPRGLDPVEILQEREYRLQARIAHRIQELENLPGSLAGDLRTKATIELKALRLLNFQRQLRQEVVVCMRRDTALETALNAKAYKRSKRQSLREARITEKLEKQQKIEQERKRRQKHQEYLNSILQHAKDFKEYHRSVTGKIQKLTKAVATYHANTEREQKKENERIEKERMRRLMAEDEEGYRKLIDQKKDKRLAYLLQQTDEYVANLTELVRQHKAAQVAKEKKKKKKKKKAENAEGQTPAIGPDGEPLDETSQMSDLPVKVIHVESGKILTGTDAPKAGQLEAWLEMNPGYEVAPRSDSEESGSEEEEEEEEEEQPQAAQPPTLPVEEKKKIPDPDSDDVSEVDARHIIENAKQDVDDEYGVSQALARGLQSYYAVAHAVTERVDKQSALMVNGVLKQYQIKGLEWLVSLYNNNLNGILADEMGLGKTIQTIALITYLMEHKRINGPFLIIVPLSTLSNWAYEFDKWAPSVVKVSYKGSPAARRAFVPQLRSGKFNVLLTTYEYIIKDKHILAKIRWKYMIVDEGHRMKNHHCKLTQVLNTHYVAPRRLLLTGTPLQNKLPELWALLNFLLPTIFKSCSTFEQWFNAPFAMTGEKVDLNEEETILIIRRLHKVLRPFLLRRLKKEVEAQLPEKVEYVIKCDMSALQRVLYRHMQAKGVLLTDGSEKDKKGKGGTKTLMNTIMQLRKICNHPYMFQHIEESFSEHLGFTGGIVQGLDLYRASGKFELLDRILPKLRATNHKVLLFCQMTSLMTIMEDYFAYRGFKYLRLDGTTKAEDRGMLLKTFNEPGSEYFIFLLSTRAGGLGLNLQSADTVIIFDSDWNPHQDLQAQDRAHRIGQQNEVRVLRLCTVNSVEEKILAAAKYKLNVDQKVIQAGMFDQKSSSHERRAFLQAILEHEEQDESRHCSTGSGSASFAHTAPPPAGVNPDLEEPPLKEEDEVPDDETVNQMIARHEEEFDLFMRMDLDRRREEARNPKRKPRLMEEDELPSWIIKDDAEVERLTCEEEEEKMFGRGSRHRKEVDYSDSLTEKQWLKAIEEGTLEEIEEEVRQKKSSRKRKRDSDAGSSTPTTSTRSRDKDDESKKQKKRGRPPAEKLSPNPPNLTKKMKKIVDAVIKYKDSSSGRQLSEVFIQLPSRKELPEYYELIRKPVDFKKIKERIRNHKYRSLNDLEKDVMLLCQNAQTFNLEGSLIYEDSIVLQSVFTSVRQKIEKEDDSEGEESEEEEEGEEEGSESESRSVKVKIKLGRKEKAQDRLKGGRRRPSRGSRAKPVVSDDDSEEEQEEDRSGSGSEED

Structure (SMILES) | BRM Max % Inhibition (BRM) | IC50 (BRM) | IC50 (BRG-1) | Emax (BRG-1)
CN1CC=Cc2ccc(C(=O)NCC(=O)Nc3nc(-c4cccc(-c5ccncc5)c4)cs3)cc2S1(=O)=O [Compound 130, 2-methyl-1,1-dioxo-N-[2-oxo-2-[[4-[3-(4-pyridyl)phenyl]thiazol-2-yl]amino]ethyl]-3H-1,2-benzothiazepine-8-carboxamide] | >60% | 0.1 to 1 µM | > 5 µM | < 30%
C[C@@H]1CN(c2cccc(-c3csc(NC(=O)CNC(=O)c4ccc5c(c4)C(C)(O)CCO5)n3)c2)C[C@H](C)O1 (stereo partly drawn) [Compound 136, N-[2-[[4-[3-[(cis)-2,6-dimethylmorpholin-4-yl]phenyl]thiazol-2-yl]amino]-2-oxo-ethyl]-4-hydroxy-4-methylchromane-6-carboxamide] | >90% | 0.1 to 1 µM | 1 to 5 µM | > 70%
C[C@@H]1CN(c2cccc(-c3csc(NC(=O)CNC(=O)c4cccc5c4OCC[C@@]5(C)CO)n3)c2)C[C@H](C)O1 [Compound 138, (R)-N-(2-((4-(3-((cis)-2,6-dimethylmorpholino)phenyl)thiazol-2-yl)amino)-2-oxoethyl)-4-(hydroxymethyl)-4-methylchroman-8-carboxamide] | >90% | 0.1 to 1 µM | > 5 µM | > 50%
C[C@@H]1CN(c2cccc(-c3csc(NC(=O)CNC(=O)c4ccnc(C(C)(C)CO)c4)n3)c2)C[C@H](C)O1 [Compound 139, N-[2-[[4-[3-[(cis)-2,6-dimethylmorpholin-4-yl]phenyl]thiazol-2-yl]amino]-2-oxo-ethyl]-2-(2-hydroxy-1,1-dimethyl-ethyl)pyridine-4-carboxamide] | >95% | 0.1 to 1 µM | 1 to 5 µM | > 70%
C[C@@H]1CN(c2cccc(-c3csc(NC(=O)CNC(=O)c4cnc5c(c4)[C@](C)(CO)CC5)n3)c2)C[C@H](C)O1 [Compound 143, (R)-N-(2-((4-(3-((cis)-2,6-dimethylmorpholino)phenyl)thiazol-2-yl)amino)-2-oxoethyl)-5-(hydroxymethyl)-5-methyl-6,7-dihydro-5H-cyclopenta[b]pyridine-3-carboxamide] | >80% | 0.1 to 1 µM | > 5 µM | > 60%
C[C@@H]1CN(c2cccc(-c3csc(NC(=O)CNC(=O)c4cnc5c(c4)[C@@](C)(CO)CC5)n3)c2)C[C@H](C)O1 [Compound 144, (S)-N-(2-((4-(3-((cis)-2,6-dimethylmorpholino)phenyl)thiazol-2-yl)amino)-2-oxoethyl)-5-(hydroxymethyl)-5-methyl-6,7-dihydro-5H-cyclopenta[b]pyridine-3-carboxamide] | >95% | 0.1 to 1 µM | 0.1 to 1 µM | > 80%
C[C@@H]1CN(c2cccc(-c3csc(NC(=O)CNC(=O)c4cc(C(C)(C)CO)ccc4F)n3)n2)C[C@H](C)O1 [Compound 145, N-[2-[[4-[6-[(cis)-2,6-dimethylmorpholin-4-yl]-2-pyridyl]thiazol-2-yl]amino]-2-oxo-ethyl]-2-fluoro-5-(2-hydroxy-1,1-dimethyl-ethyl)benzamide] | >90% | 0.1 to 1 µM | 1 to 5 µM | > 60%
C[C@@H]1CN(c2cccc(-c3csc(NC(=O)CNC(=O)c4cccc5c4OCC[C@@]5(C)C#N)n3)c2)C[C@H](C)O1 [Compound 146, (R)-4-cyano-N-(2-((4-(3-((cis)-2,6-dimethylmorpholino)phenyl)thiazol-2-yl)amino)-2-oxoethyl)-4-methylchroman-8-carboxamide] | >70% | 0.1 to 1 µM | > 5 µM | > 30%
C[C@@H]1CN(c2cccc(-c3csc(NC(=O)CNC(=O)c4cccc5c4OCC[C@]5(C)C#N)n3)c2)C[C@H](C)O1 [Compound 148, (S)-4-cyano-N-(2-((4-(3-((cis)-2,6-dimethylmorpholino)phenyl)thiazol-2-yl)amino)-2-oxoethyl)-4-methylchroman-8-carboxamide] | >70% | 0.1 to 1 µM | > 5 µM | > 30%
C[C@@H]1CN(c2cccc(-c3csc(NC(=O)CNC(=O)c4cccc(C5(CF)COC5)c4)n3)c2)C[C@H](C)O1 [Compound 149, N-(2-((4-(3-((cis)-2,6-dimethylmorpholino)phenyl)thiazol-2-yl)amino)-2-oxoethyl)-3-(3-(fluoromethyl)oxetan-3-yl)benzamide] | >95% | 0.1 to 1 µM | 1 to 5 µM | > 70%
C[C@@H]1CN(c2cccc(-c3csc(NC(=O)CNC(=O)c4cccc([C@]5(F)C[C@H](O)C5)c4)n3)c2)C[C@H](C)O1 [Compound 150, N-(2-((4-(3-((cis)-2,6-dimethylmorpholino)phenyl)thiazol-2-yl)amino)-2-oxoethyl)-3-((1r,3r)-1-fluoro-3-hydroxycyclobutyl)benzamide] | >95% | < 0.1 µM | 0.1 to 1 µM | > 90%
C[C@@H]1CN(c2cccc(-c3csc(NC(=O)CNC(=O)c4cccc([C@]5(F)C[C@@H](O)C5)c4)n3)c2)C[C@H](C)O1 [Compound 151, N-(2-((4-(3-((cis)-2,6-dimethylmorpholino)phenyl)thiazol-2-yl)amino)-2-oxoethyl)-3-((1s,3s)-1-fluoro-3-hydroxycyclobutyl)benzamide] | >95% | < 0.1 µM | 0.1 to 1 µM | > 95%
C[C@@H]1CN(c2cccc(-c3csc(NC(=O)CNC(=O)c4ccc5c(c4)[C@](C)(C#N)CC5)n3)n2)C[C@H](C)O1 [Compound 152, (R)-3-cyano-N-(2-((4-(6-((cis)-2,6-dimethylmorpholino)pyridin-2-yl)thiazol-2-yl)amino)-2-oxoethyl)-3-methyl-2,3-dihydro-1H-indene-5-carboxamide] | >95% | < 0.1 µM | < 0.1 µM | > 95%
C[C@@H]1CN(c2cccc(-c3csc(NC(=O)CNC(=O)c4ccc5c(c4)[C@](C)(C#N)CCO5)n3)n2)C[C@H](C)O1 [Compound 153, (R)-4-cyano-N-(2-((4-(6-((cis)-2,6-dimethylmorpholino)pyridin-2-yl)thiazol-2-yl)amino)-2-oxoethyl)-4-methylchroman-6-carboxamide] | >95% | < 0.1 µM | < 0.1 µM | > 95%
Cn1ncc(-c2cccc(-c3csc(NC(=O)CNC(=O)c4cccc(C(C)(C)CO)c4)n3)n2)n1 [Compound 154, 3-(1-hydroxy-2-methylpropan-2-yl)-N-(2-((4-(6-(2-methyl-2H-1,2,3-triazol-4-yl)pyridin-2-yl)thiazol-2-yl)amino)-2-oxoethyl)benzamide] | >90% | 0.1 to 1 µM | 1 to 5 µM | > 60%

The next lines start with the values.

BRM Max % Inhibition (BRM) | IC50 (BRM) | IC50 (BRG-1) | Emax (BRG-1) | Structure (SMILES)
>95% | < 0.1 µM | 0.1 to 1 µM | > 70% | CN1CCCc2ccc(C(=O)NCC(=O)Nc3nc(-c4cccc(-c5ccncc5)c4)cs3)cc2S1(=O)=O [Compound 131, 2-methyl-1,1-dioxo-N-[2-oxo-2-[[4-[3-(4-pyridyl)phenyl]thiazol-2-yl]amino]ethyl]-4,5-dihydro-3H-1,2-benzothiazepine-8-carboxamide]
>80% | 0.1 to 1 µM | 1 to 5 µM | > 60% | C[C@@H]1CN(c2cccc(-c3csc(NC(=O)CNC(=O)c4cccc([C@@]5(O)CCOC5)c4)n3)n2)C[C@H](C)O1 [Compound 134, N-[2-[[4-[6-[(cis)-2,6-dimethylmorpholin-4-yl]-2-pyridyl]thiazol-2-yl]amino]-2-oxo-ethyl]-3-[(3S)-3-hydroxytetrahydrofuran-3-yl]benzamide]
>95% | 0.1 to 1 µM | > 5 µM | > 50% | C[C@@H]1CN(c2cccc(-c3csc(NC(=O)CNC(=O)c4ccc5c(c4)[C@@H]([C@H](C)O)CC5)n3)n2)C[C@H](C)O1 [Compound 140, (3S)-N-[2-[[4-[6-[(cis)-2,6-dimethylmorpholin-4-yl]-2-pyridyl]thiazol-2-yl]amino]-2-oxo-ethyl]-3-[(1S)-1-hydroxyethyl]indane-5-carboxamide]
>80% | 0.1 to 1 µM | > 5 µM | > 60% | C[C@@H]1CN(c2cccc(-c3csc(NC(=O)CNC(=O)c4ccc5c(c4)[C@H]([C@H](C)O)CC5)n3)n2)C[C@H](C)O1 [Compound 141, (3R)-N-[2-[[4-[6-[(cis)-2,6-dimethylmorpholin-4-yl]-2-pyridyl]thiazol-2-yl]amino]-2-oxo-ethyl]-3-[(1S)-1-hydroxyethyl]indane-5-carboxamide]
>95% | < 0.1 µM | 0.1 to 1 µM | > 80% | C[C@@H]1CN(c2cccc(-c3csc(NC(=O)CNC(=O)c4ccc5c(c4)[C@@H]([C@@H](C)O)CC5)n3)n2)C[C@H](C)O1 [Compound 142, (3S)-N-[2-[[4-[6-[(cis)-2,6-dimethylmorpholin-4-yl]-2-pyridyl]thiazol-2-yl]amino]-2-oxo-ethyl]-3-[(1R)-1-hydroxyethyl]indane-5-carboxamide]
>90% | 0.1 to 1 µM | 1 to 5 µM | > 80% | Cn1ccc2ccc(-c3csc(NC(=O)CNC(=O)c4cccc(C5(C#N)CCC5)c4)n3)cc2c1=O [Compound 147, 3-(1-cyanocyclobutyl)-N-(2-((4-(2-methyl-1-oxo-1,2-dihydroisoquinolin-7-yl)thiazol-2-yl)amino)-2-oxoethyl)benzamide]
